Measured values published in PubChem BioAssay AID1963425 (Molecular Pharmacology Branch, DTP, NCI, 2024).

System: 323965-272-R-J2-PDC complex spheroid growth, % test/control
Test: Anticancer human tumor 323965-272-R-J2-PDC patient-derived pancreatic carcinoma cell line growth inhibition [Asc]
Settings: for IC50: curve of first compound; for viability, T/C: stronger effect = lower value
Procedure, shortened: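 Concentration series start at each agent's clinical Cmax, or at 10 microM when none is established, and drop in half-log steps; agents are applied alone or together to complex spheroids built with HUVEC and hMSC.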
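Also: compound exposure lasted 7 days starting three days after spheroid seeding.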
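For viability, T/C in this document: 100% = DMSO vehicle control wells with viability set relative to vehicle.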

Work on CNC(C)C(=O)NC1CN(S(=O)(=O)c2cccc(S(=O)(=O)N3CCC4CCC(C(=O)NC(c5ccccc5)c5ccccc5)N4C(=O)C(NC(=O)C(C)NC)C3)c2)CCC2CCC(C(=O)NC(c3ccccc3)c3ccccc3)N2C1=O (centres undefined) + Cc1c(S(C)(=O)=O)c(-c2cc(F)cc(N3CCN(c4ccc(NS(=O)(=O)c5ccc(NC(CCN6CCC(C(=O)OCCCP(=O)(O)O)CC6)CSc6ccccc6)c(S(=O)(=O)C(F)(F)F)c5)cc4)CC3)c2)c(-c2ccc(Cl)cc2)n1C(C)C yielded an IC50 (second compound 0.0316 µM) of over 1000 nM, an IC50 (second compound 0.1 µM) of over 1000 nM and an IC50 (second compound 0.316 µM) of 878 nM. It also gave an IC50 (second compound 1 µM) of 745 nM, an IC50 (second compound 3.16 µM) of 569 nM and an IC50 (second compound 10 µM) of 324 nM. For the same compound, the viability, T/C (second compound 0.0316 µM, first compound 0.00316 µM) was 106%, the viability, T/C (second compound 0.0316 µM, first compound 0.01 µM) was 119% and the viability, T/C (second compound 0.0316 µM, first compound 0.0316 µM) was 96.3%. The viability, T/C (second compound 0.0316 µM, first compound 0.1 µM) was 103%, the viability, T/C (second compound 0.0316 µM, first compound 0.316 µM) was 99.3% and the viability, T/C (second compound 0.0316 µM, first compound 1 µM) was 58.4%. The viability, T/C (second compound 0.1 µM, first compound 0.00316 µM) was 107%, the viability, T/C (second compound 0.1 µM, first compound 0.01 µM) was 96.6% and the viability, T/C (second compound 0.1 µM, first compound 0.0316 µM) was 98.2%. For the same compound, the viability, T/C (second compound 0.1 µM, first compound 0.1 µM) was 107%, the viability, T/C (second compound 0.1 µM, first compound 0.316 µM) was 93% and the viability, T/C (second compound 0.1 µM, first compound 1 µM) was 54.1%. It also gave a viability, T/C (second compound 0.316 µM, first compound 0.00316 µM) of 96.9%, a viability, T/C (second compound 0.316 µM, first compound 0.01 µM) of 90.1% and a viability, T/C (second compound 0.316 µM, first compound 0.0316 µM) of 90.8%. It also gave a viability, T/C (second compound 0.316 µM, first compound 0.1 µM) of 86.1%, a viability, T/C (second compound 0.316 µM, first compound 0.316 µM) of 93.4% and a viability, T/C (second compound 0.316 µM, first compound 1 µM) of 44.7%. For the same compound, the viability, T/C (second compound 1 µM, first compound 0.00316 µM) was 90.2%, the viability, T/C (second compound 1 µM, first compound 0.01 µM) was 85.7% and the viability, T/C (second compound 1 µM, first compound 0.0316 µM) was 85.7%. The viability, T/C (second compound 1 µM, first compound 0.1 µM) was 76.7%, the viability, T/C (second compound 1 µM, first compound 0.316 µM) was 83% and the viability, T/C (second compound 1 µM, first compound 1 µM) was 38.8%. The viability, T/C (second compound 3.16 µM, first compound 0.00316 µM) was 79.8%, the viability, T/C (second compound 3.16 µM, first compound 0.01 µM) was 70.9% and the viability, T/C (second compound 3.16 µM, first compound 0.0316 µM) was 64%. The viability, T/C (second compound 3.16 µM, first compound 0.1 µM) was 75.8%, the viability, T/C (second compound 3.16 µM, first compound 0.316 µM) was 72% and the viability, T/C (second compound 3.16 µM, first compound 1 µM) was 29%. It also gave a viability, T/C (second compound 10 µM, first compound 0.00316 µM) of 77.4%, a viability, T/C (second compound 10 µM, first compound 0.01 µM) of 80.1% and a viability, T/C (second compound 10 µM, first compound 0.0316 µM) of 65.8%. The viability, T/C (second compound 10 µM, first compound 0.1 µM) was 59.8%, the viability, T/C (second compound 10 µM, first compound 0.316 µM) was 57% and the viability, T/C (second compound 10 µM, first compound 1 µM) was 22.6%.
Compound Cc1nc(N2CCC3(CC2)COC(C)C3N)c(CO)nc1Sc1ccnc(N)c1Cl (centres undefined) + Cc1c(S(C)(=O)=O)c(-c2cc(F)cc(N3CCN(c4ccc(NS(=O)(=O)c5ccc(NC(CCN6CCC(C(=O)OCCCP(=O)(O)O)CC6)CSc6ccccc6)c(S(=O)(=O)C(F)(F)F)c5)cc4)CC3)c2)c(-c2ccc(Cl)cc2)n1C(C)C has an IC50 (second compound 0.0316 µM) of 1610 nM, an IC50 (second compound 0.1 µM) of 981 nM and an IC50 (second compound 0.316 µM) of 809 nM. The IC50 (second compound 1 µM) was 281 nM, the IC50 (second compound 3.16 µM) was 85.9 nM and the IC50 (second compound 10 µM) was 59.2 nM. For the same compound, the viability, T/C (second compound 0.0316 µM, first compound 0.00949 µM) was 92.9%, the viability, T/C (second compound 0.0316 µM, first compound 0.03 µM) was 87.9% and the viability, T/C (second compound 0.0316 µM, first compound 0.0949 µM) was 79.6%. It also gave a viability, T/C (second compound 0.0316 µM, first compound 0.3 µM) of 67.8%, a viability, T/C (second compound 0.0316 µM, first compound 0.949 µM) of 54.9% and a viability, T/C (second compound 0.0316 µM, first compound 3 µM) of 44.2%. The viability, T/C (second compound 0.1 µM, first compound 0.00949 µM) was 105%, the viability, T/C (second compound 0.1 µM, first compound 0.03 µM) was 96.2% and the viability, T/C (second compound 0.1 µM, first compound 0.0949 µM) was 70.6%. It also gave a viability, T/C (second compound 0.1 µM, first compound 0.3 µM) of 69%, a viability, T/C (second compound 0.1 µM, first compound 0.949 µM) of 49.1% and a viability, T/C (second compound 0.1 µM, first compound 3 µM) of 37.8%. It also gave a viability, T/C (second compound 0.316 µM, first compound 0.00949 µM) of 92.2%, a viability, T/C (second compound 0.316 µM, first compound 0.03 µM) of 87.2% and a viability, T/C (second compound 0.316 µM, first compound 0.0949 µM) of 76.1%. The viability, T/C (second compound 0.316 µM, first compound 0.3 µM) was 62.2%, the viability, T/C (second compound 0.316 µM, first compound 0.949 µM) was 48.5% and the viability, T/C (second compound 0.316 µM, first compound 3 µM) was 35.9%. It also gave a viability, T/C (second compound 1 µM, first compound 0.00949 µM) of 81%, a viability, T/C (second compound 1 µM, first compound 0.03 µM) of 78% and a viability, T/C (second compound 1 µM, first compound 0.0949 µM) of 64.8%. The viability, T/C (second compound 1 µM, first compound 0.3 µM) was 48.9%, the viability, T/C (second compound 1 µM, first compound 0.949 µM) was 36.1% and the viability, T/C (second compound 1 µM, first compound 3 µM) was 28.1%. It also gave a viability, T/C (second compound 3.16 µM, first compound 0.00949 µM) of 72.8%, a viability, T/C (second compound 3.16 µM, first compound 0.03 µM) of 64.3% and a viability, T/C (second compound 3.16 µM, first compound 0.0949 µM) of 45.8%. It also gave a viability, T/C (second compound 3.16 µM, first compound 0.3 µM) of 37.6%, a viability, T/C (second compound 3.16 µM, first compound 0.949 µM) of 29.6% and a viability, T/C (second compound 3.16 µM, first compound 3 µM) of 19.6%. The viability, T/C (second compound 10 µM, first compound 0.00949 µM) was 73.3%, the viability, T/C (second compound 10 µM, first compound 0.03 µM) was 59.3% and the viability, T/C (second compound 10 µM, first compound 0.0949 µM) was 41.7%. The viability, T/C (second compound 10 µM, first compound 0.3 µM) was 34.5%, the viability, T/C (second compound 10 µM, first compound 0.949 µM) was 23.2% and the viability, T/C (second compound 10 µM, first compound 3 µM) was 15%.
